US20150132852A1, “TISSUE CULTURING METHOD, CULTURING METHOD OF FERNS AND EXPLANT OBTAINED THEREFROM” (Chunghwa Picture Tubes, Ltd., priority 2013, published 2015)

Columns and labels:
[1] = system: callus rounds of Davallia mariesii; assay: Sporophyte regeneration from callus rounds under various cytokinins; assay type: cell-based
Description: Finally, the callus round is further cultured in a culture fluid at 23° C. to 25° C. and 11 to 14 μmol^−2 s^−1 (Light:Dark=16:8) for between to 150 days (preferably for 120 days), and are preferably sub-cultured every fifteen days till the callus round regenerates a sporophyte. In this situation, the callus round will keep on growing, and can reach 0.57 cm to 0.7 cm in diameter after approximately 60 days, and reach 1.2 cm to 1.34 cm in 120 days. In the present example, the culture fluid comprises ½ MS medium. In other examples, the culture fluid can further comprise 1 to 5 mg/l N6-(delta 2-isopentenyl)-adenine (2ip), 6-benzylaminopurine (BA) and kinetin, particularly for 1 mg/l N6-(delta 2-isopentenyl)-adenine (2ip). […] Additionally, a regenerated sporophyte of the present example can be further transplanted to a solid medium till it has more than 3 cm length (preferably for 3.5 cm length) for growing into a plant, wherein the plant has a survival rate of up to 90.3%. In the present experiment, callus rounds, being 0.14±0.03 g and 0.21±0.02, are prepared wherein every four are cultured in a culture fluid to induce the callus rounds to regenerate sporophytes, wherein the medium comprises ½ MS medium (including a small amount of sucrose, namely 20 g/l sucrose) and various cytokinins in various amounts as listed in TABLE 3. After 60 days and 120 days of culturing, respectively, sporophytes obtained in each medium are collected and analyzed to record the size of the callus rounds and the number and length of sporophytes regenerated from the callus rounds.

[2] = system: chopped prothallium of Davallia mariesii; assay: Calluses induction from chopped prothallium under various growth regulators; assay type: cell-based; conditions: 60 days
Description: The prothallium is chopped up into small pieces being 0.1 cm to 0.2 cm in width and cultured (suspending culture) in a medium, wherein the medium comprises ½ MS medium (Murashige and Skoog, 1962) having a composition as shown in TABLE 1. In other examples, the medium can also comprise Knop medium (Murashige and Skoog, 1962) or knudson medium (Knudson, 1946). Precisely, 0.1 g chopped prothallium are cultured in 10 ml ½ MS medium, which are shake cultured at 85 rpm for forty to eighty days, and preferably at 23° C. to 25° C. and 11 to 14 μmol^−2 s^−1 (Light:Dark=16:8) for sixty days, and are sub-cultured every thirty days. In the present experiment, a plurality of 50 ml flasks are prepared, each having 0.1 g chopped prothallium of Davallia mariesii (in 0.1 cm to 0.2 cm pieces) being cultured in a medium therein, wherein the medium comprises 10 ml ½ MS medium (including a small amount of sucrose, namely 20 g/l sucrose) and various growth regulators in various amounts as listed in TABLE 2. After 60 days of culturing, calluses obtained in each flask are collected and analyzed respectively, to record the size, weight and number of each callus.

[3] = 1 mg/l in culture fluid, 120 days
[4] = single growth regulator 1 mg/L in 1/2 MS medium
[5] = single growth regulator 2 mg/L in 1/2 MS medium
[6] = single growth regulator 5 mg/L in 1/2 MS medium

Row | SMILES | Diameter (cm) of callus round and sporophyte thereon ([1]; cytokinin 1 mg/L, 60 days) | Induction Rate (%) of sporophyte ([1]; cytokinin 1 mg/L, 60 days) | Proliferation Rate (%) of callus round ([1]; cytokinin 1 mg/L, 60 days) | Diameter (cm) of callus round and sporophyte thereon ([1]; cytokinin 1 mg/L, 120 days) | Induction Rate (%) of sporophyte ([1]; cytokinin 1 mg/L, 120 days) | Proliferation Rate (%) of callus round ([1]; cytokinin 1 mg/L, 120 days) | Diameter (cm) of callus round and sporophyte thereon ([1]; cytokinin 2 mg/L, 60 days) | Induction Rate (%) of sporophyte ([1]; cytokinin 2 mg/L, 60 days) | Proliferation Rate (%) of callus round ([1]; cytokinin 2 mg/L, 60 days) | Diameter (cm) of callus round and sporophyte thereon ([1]; cytokinin 2 mg/L, 120 days) | Induction Rate (%) of sporophyte ([1]; cytokinin 2 mg/L, 120 days) | Proliferation Rate (%) of callus round ([1]; cytokinin 2 mg/L, 120 days) | Diameter (cm) of callus round and sporophyte thereon ([1]; cytokinin 5 mg/L, 60 days) | Induction Rate (%) of sporophyte ([1]; cytokinin 5 mg/L, 60 days) | Proliferation Rate (%) of callus round ([1]; cytokinin 5 mg/L, 60 days) | Diameter (cm) of callus round and sporophyte thereon ([1]; cytokinin 5 mg/L, 120 days) | Induction Rate (%) of sporophyte ([1]; cytokinin 5 mg/L, 120 days) | Proliferation Rate (%) of callus round ([1]; cytokinin 5 mg/L, 120 days) | Calluses (numbers), callus round in 0.1-0.2 cm [2, 4] | Proliferation Rate (%) [2, 4] | further results
1 | CC(C)=CCNc1ncnc2nc[nH]c12 [2ip, N6-(delta 2-isopentenyl)-adenine] | 0.57 ± 0.04 cm | 100.0% | 208.9 ± 24.1% | 1.34 ± 0.22 cm | 100.0% | 537.5 ± 161.2% | 0.60 ± 0.03 cm | 100.0% | 156.0 ± 22.2% | 1.46 ± 0.21 cm | 100.0% | 386.3 ± 99.7% | 0.38 ± 0.03 cm | 0.0% | 64.9 ± 18.3% | 0.91 ± 0.24 cm | 8.3% | 208.3 ± 67.9% | – | – | induction rate of sporophytes [1, 3]: 100%; proliferation rate of the callus [1, 3]: 537±161.2%
2 | c1ccc(CNc2ncnc3nc[nH]c23)cc1 [BA, 6-benzylaminopurine] | 0.29 ± 0.05 cm | 0.0% | 40.5 ± 16.6% | 0.97 ± 0.15 cm | 0.0% | 191.1 ± 71.5% | 0.42 ± 0.06 cm | 0.0% | 89.9 ± 22.9% | 0.77 ± 0.13 cm | 0.0% | 300.0 ± 38.6% | 0.41 ± 0.06 cm | 0.0% | 41.1 ± 16.3% | 0.88 ± 0.16 cm | 0.0% | 216.7 ± 38.7% | – | – | –
3 | c1coc(CNc2ncnc3nc[nH]c23)c1 [Kinetin, 6-Furfurylamino-purine] | 0.31 ± 0.06 cm | 0.0% | 82.1 ± 24.3% | 0.63 ± 0.09 cm | 16.7% | 231.0 ± 83.5% | 0.23 ± 0.05 cm | 0.0% | 47.0 ± 12.2% | 1.02 ± 0.06 cm | 0.0% | 182.1 ± 88.4% | 0.32 ± 0.07 cm | 0.0% | 72.6 ± 17.5% | 1.13 ± 0.10 cm | 0.0% | 217.9 ± 70.9% | 73.67 ± 14.38 numbers | 153.3 ± 24.9% | Calluses (numbers), callus round in 0.1-0.2 cm [2, 5]: 21.00 ± 3.74 numbers; Proliferation Rate (%) [2, 5]: 66.6 ± 17.0%; Calluses (numbers), callus round in 0.1-0.2 cm [2, 6]: 6.00 ± 5.35 numbers; Proliferation Rate (%) [2, 6]: 23.3 ± 4.7%
4 | O=C(O)Cc1cccc2ccccc12 [NAA, 1-Naphthaleneacetic acid] | – | – | – | – | – | – | – | – | – | – | – | – | – | – | – | – | – | – | 54.33 ± 9.46 numbers | 96.6 ± 17.0% | Calluses (numbers), callus round in 0.1-0.2 cm [2, 5]: 23.67 ± 1.25 numbers; Proliferation Rate (%) [2, 5]: 53.3 ± 20.6%; Calluses (numbers), callus round in 0.1-0.2 cm [2, 6]: 0.00 ± 0.00 numbers; Proliferation Rate (%) [2, 6]: 23.3 ± 4.7%
